Measured values published in US4027039A (priority 1975, dated 1977).
Where “and” joins values, the source holds several entries; their conditions need not be identical. Identical values can stand only once. Like-named read-outs stand apart in the source and are kept apart here.

Key:
Influenza A PR8 virus = tested on: Influenza A PR8 virus; design: toxicity at upper limit: dose or concentration left out as unconfirmed; details: cited from earlier work
Herpes virus [1] = assay: Herpes virus in chicken eggs, single dose 24 hours pre-infection; format: in vivo, chick embryo
Vaccinia virus [2] = format: in vivo, rabbit
viral infections = assay: Antiviral screening in animals, general statements; details: mouse, in vivo
Herpes virus [3] = tested on: Herpes virus
Neurovaccinia virus = assay: Neurovaccinia in mice; details: single dose level, three instances
Vaccinia virus [4] = tested on: Vaccinia virus; design: species or system fertile eggs; details: various concentrations
Influenza PR 8 virus [5] = assay: Influenza PR 8 in mice, intraperitoneal (Table 47); format: in vivo, mouse
Influenza PR 8 virus [6] = assay: Influenza PR 8 in mice, oral; schedule by table; late read day 6 (Table 37), 7 (33, 36), 8 (32, 35, 47), 10 (38); control fraction 18/20 (Table 32), 19/20 (Table 35), else 100%; format: in vivo, mouse
[7] = tested on: Influenza, Ann Arbor virus; assay: Influenza Ann Arbor in mice, oral; schedule by table; late read day 5 (Tables 15, 25, 29, 30), 6 (18, 20, 22, 23, 26, 27, 28, 54), 7 (14, 19, 21, 24, 53, 56), 8 (16, 17, 51), 9 (11, 55); format: in vivo, mouse
Vaccinia IHD virus = format: in vivo, mouse
Influenza PR 8 virus [8] = assay: Influenza PR 8 in mice, subcutaneous; late read day 6 (Table 37), 8 (Table 47); format: in vivo, mouse
Mengo virus = Mengo virus in mice, oral; format: in vivo, mouse
From the text: The results are illustrated in Table 43.

CC(C=NNC(=N)N)=NNC(=N)N [Methylgloxal-bis-guanylhydrazone]
toxicity at upper limit (Influenza A PR8 virus): toxic
inhibition (Influenza A PR8 virus; lower limit, 0.125 mg per ml): Ninety

NNC(N)=S [Thiosemicarbazide, thiosemicarbazide]
Deaths on day 1 (Herpes virus [1]; 2 μg): 3
Deaths on day 3 (Herpes virus [1]; 2 μg): 5
Deaths on day 4 (Herpes virus [1]; 2 μg): 3
No. dying 5-22 day (Herpes virus [1]; 2 μg): 0
No. living longer than controls (Herpes virus [1]; 2 μg): 0
Total deaths, 4th day (Herpes virus [1]; 2 μg): 12
Deaths on day 2 (Herpes virus [1]; 20 μg): 4
Deaths on day 3 (Herpes virus [1]; 20 μg): 6
No. dying 5-22 day (Herpes virus [1]; 20 μg): 0
No. living longer than controls (Herpes virus [1]; 20 μg): 0
Total deaths, 4th day (Herpes virus [1]; 20 μg): 12
Deaths on day 1 (Herpes virus [1]; .00005 μg): 2
Deaths on day 2 (Herpes virus [1]; .00005 μg): 5
Deaths on day 3 (Herpes virus [1]; .00005 μg): 2
No. dying 5-22 day (Herpes virus [1]; .00005 μg): 0
Total deaths, 4th day (Herpes virus [1]; .00005 μg): 10
Deaths on day 1 (Herpes virus [1]; .0005 μg): 2
Deaths on day 2 (Herpes virus [1]; .0005 μg): 3
Deaths on day 3 (Herpes virus [1]; .0005 μg): 2
Deaths on day 4 (Herpes virus [1]; .0005 μg): 3
No. dying 5-22 day (Herpes virus [1]; .0005 μg): 0
Total deaths, 4th day (Herpes virus [1]; .0005 μg): 10
Deaths on day 1 (Herpes virus [1]; .005 μg): 4
Deaths on day 2 (Herpes virus [1]; .005 μg): 3
Deaths on day 3 (Herpes virus [1]; .005 μg): 3
No. living longer than controls (Herpes virus [1]; .005 μg): 2
Total deaths, 4th day (Herpes virus [1]; .005 μg): 10
Deaths on day 2 (Herpes virus [1]; .05 μg): 3
Deaths on day 3 (Herpes virus [1]; .05 μg): 5
No. dying 5-22 day (Herpes virus [1]; .05 μg): 0
Total deaths, 4th day (Herpes virus [1]; .05 μg): 9
Deaths on day 1 (Herpes virus [1]; .5 μg): 3
Deaths on day 2 (Herpes virus [1]; .5 μg): 4
Deaths on day 3 (Herpes virus [1]; .5 μg): 2
Deaths on day 4 (Herpes virus [1]; .5 μg): 2
No. dying 5-22 day (Herpes virus [1]; .5 μg): 0
Total deaths, 4th day (Herpes virus [1]; .5 μg): 11
Total no. living longer than controls (Herpes virus [1]; all doses): 7
approximate percentage confluency of the pox (Vaccinia virus [2]; 0.0000025 μg/kg, Test 2): 85%
approximate percentage confluency of the pox (Vaccinia virus [2]; 0.000025 μg/kg, Test 2): 25%
approximate percentage confluency of the pox (Vaccinia virus [2]; 0.00025 μg/kg, Test 2): 40%
approximate percentage confluency of the pox (Vaccinia virus [2]; 0.0025 μg/kg, Duplicate Experiments): 75% and 60%
approximate percentage confluency of the pox (Vaccinia virus [2]; 0.0025 μg/kg, Test 1): 2%
approximate percentage confluency of the pox (Vaccinia virus [2]; 0.0025 μg/kg, Test 2): 80%
approximate percentage confluency of the pox (Vaccinia virus [2]; 0.0025 μg/kg, Test 3): 85%
approximate percentage confluency of the pox (Vaccinia virus [2]; 0.025 μg/kg, Duplicate Experiments): 75% and 80%
approximate percentage confluency of the pox (Vaccinia virus [2]; 0.025 μg/kg, Test 1): 5%
approximate percentage confluency of the pox (Vaccinia virus [2]; 0.025 μg/kg, Test 2): 5%
approximate percentage confluency of the pox (Vaccinia virus [2]; 0.025 μg/kg, Test 3): 75% and 90%
approximate percentage confluency of the pox (Vaccinia virus [2]; 0.25 μg/kg, Test 1): 10%
approximate percentage confluency of the pox (Vaccinia virus [2]; 0.25 μg/kg, Test 2): 10%
approximate percentage confluency of the pox (Vaccinia virus [2]; 0.25 μg/kg, Test 3): 30% and 40%
approximate percentage confluency of the pox (Vaccinia virus [2]; 2.5 μg/kg, Duplicate Experiments): 30% and 20%
approximate percentage confluency of the pox (Vaccinia virus [2]; 2.5 μg/kg, Test 1): 50%
approximate percentage confluency of the pox (Vaccinia virus [2]; 2.5 μg/kg, Test 2): 80%
approximate percentage confluency of the pox (Vaccinia virus [2]; 2.5 μg/kg, Test 3): 30% and 20%
approximate percentage confluency of the pox (Vaccinia virus [2]; 25 μg/kg, Test 1): 80%
approximate percentage confluency of the pox (Vaccinia virus [2]; 25 μg/kg, Test 2): 10%
approximate percentage confluency of the pox (Vaccinia virus [2]; 250 μg/kg, Test 1): 80%
significance (T test) (Vaccinia virus [2]; dose 0.25 μg/kg): < .01
significance (T test) (Vaccinia virus [2]; dose 2.5 μg/kg): < .01
effect on pox formation (Vaccinia virus [2]; rabbit, in vivo): highly significant and reproducible protective effects
activity in words (viral infections): active
activity in words (Herpes virus [3]; mouse, in vivo): quite significant protection
No. animals surviving when 100% (or given fraction) of controls are dead (Herpes virus [3]; total dose .000005 μg): 0
Survivors (Herpes virus [3]; total dose .000005 μg): 0
No. animals surviving after 6-9 days (Herpes virus [3]; total dose .00005 μg): 6
No. animals surviving when 100% (or given fraction) of controls are dead (Herpes virus [3]; total dose .00005 μg): 3
Survivors (Herpes virus [3]; total dose .00005 μg): 3
No. animals surviving after 6-9 days (Herpes virus [3]; total dose .005 μg): 5 and 3 and 6
No. animals surviving after 6-9 days (Herpes virus [3]; total dose .5 μg): 3
surviving animals (Neurovaccinia virus): one
effect on pox formation on the membrane (Vaccinia virus [4]): No effect
Survivors (Influenza PR 8 virus [5]; total dose 5 μg): 0
Survivors (Influenza PR 8 virus [5]; total dose .005 μg): 0
Survivors (Influenza PR 8 virus [5]; total dose .05 μg): 0
Survivors (Influenza PR 8 virus [5]; total dose .5 μg): 0
No. animals surviving after 6-10 days (Influenza PR 8 virus [6]; total dose 5 μg): 3
No. animals surviving after 6-10 days (Influenza PR 8 virus [6]; total dose .005 μg): 3
No. animals surviving when 100% (or given fraction) of controls are dead (Influenza PR 8 virus [6]; total dose .005 μg): 3
Survivors (Influenza PR 8 virus [6]; total dose .005 μg): 3
No. animals surviving when 100% (or given fraction) of controls are dead (Influenza PR 8 virus [6]; total dose .5 μg): 0
Survivors (Influenza PR 8 virus [6]; total dose .5 μg): 0
No. animals surviving after 5-9 days ([7]; total dose .05 μg): 5
No. animals surviving after 5-9 days ([7]; total dose .5 μg): 3
Survivors ([7]; total dose .5 μg): 0
No. animals surviving after 5-9 days ([7]; total dose .5 μg, listed as thiosemicarbazide): 7 and 6
Statistical Significance of Tail Lesions (Vaccinia IHD virus; 10 ng, day 12): < .05
Statistical Significance of Tail Lesions (Vaccinia IHD virus; 10 ng, day 14): < .05
Statistical Significance of Tail Lesions (Vaccinia IHD virus; 10 ng, day 17): < .05
Statistical Significance of Tail Lesions (Vaccinia IHD virus; 10 ng, day 21): < .05
Statistical Significance of Tail Lesions (Vaccinia IHD virus; 1 μg, day 5): < .01
Statistical Significance of Tail Lesions (Vaccinia IHD virus; 1 μg, day 6): < .01
Statistical Significance of Tail Lesions (Vaccinia IHD virus; 1 μg, day 7): < .01
Statistical Significance of Tail Lesions (Vaccinia IHD virus; 1 μg, day 8): < .01
Statistical Significance of Tail Lesions (Vaccinia IHD virus; 1 μg, day 10): < .01
Statistical Significance of Tail Lesions (Vaccinia IHD virus; 1 μg, day 11): < .01
Statistical Significance of Tail Lesions (Vaccinia IHD virus; 1 μg, day 12): < .01
Statistical Significance of Tail Lesions (Vaccinia IHD virus; 1 μg, day 14): < .01
Statistical Significance of Tail Lesions (Vaccinia IHD virus; 1 μg, day 17): < .01
Statistical Significance of Tail Lesions (Vaccinia IHD virus; 1 μg, day 21): < .01
Statistical Significance of Tail Lesions (Vaccinia IHD virus; 10 [μg], day 6): < .01
Statistical Significance of Tail Lesions (Vaccinia IHD virus; 10 [μg], day 10): < .05
Statistical Significance of Tail Lesions (Vaccinia IHD virus; 10 [μg], day 11): < .01
Statistical Significance of Tail Lesions (Vaccinia IHD virus; 10 [μg], day 12): < .01
Statistical Significance of Tail Lesions (Vaccinia IHD virus; 10 [μg], day 14): < .01
Statistical Significance of Tail Lesions (Vaccinia IHD virus; 10 [μg], day 17): < .01
Statistical Significance of Tail Lesions (Vaccinia IHD virus; 10 [μg], day 21): < .01
Statistical Significance of Tail Lesions (Vaccinia IHD virus; 100 [ng], day 8): < .05
Statistical Significance of Tail Lesions (Vaccinia IHD virus; 100 [ng], day 10): < .01
Statistical Significance of Tail Lesions (Vaccinia IHD virus; 100 [ng], day 11): < .01
Statistical Significance of Tail Lesions (Vaccinia IHD virus; 100 [ng], day 12): < .01
Statistical Significance of Tail Lesions (Vaccinia IHD virus; 100 [ng], day 14): < .01
Statistical Significance of Tail Lesions (Vaccinia IHD virus; 100 [ng], day 17): < .01
Statistical Significance of Tail Lesions (Vaccinia IHD virus; 100 [ng], day 21): < .01
No. animals surviving after 6-8 days (Influenza PR 8 virus [8]; total dose 5 μg): 3
Survivors (Influenza PR 8 virus [8]; total dose 5 μg): 3
Survivors (Influenza PR 8 virus [8]; total dose .0005 μg): 0
Survivors (Influenza PR 8 virus [8]; total dose .005 μg): 0
Survivors (Mengo virus; total dose .0000005 μg): 0
No. animals surviving after 6 days (Mengo virus; total dose .000005 μg): 2
No. animals surviving after 6 days (Mengo virus; total dose .00005 μg): 5
Survivors (Mengo virus; total dose .0005 μg): 0
Survivors (Mengo virus; total dose .005 μg): 0
